molecular target: PKM2 (Homo sapiens, UniProt P14618); assay: PKM2 Assay; type: biochemical; details: activation of PKM2 enzyme, LDH-coupled, absorbance at 340 nm; read-out: PKM2_AC50
Description: • PKM2 stock enzyme solution was diluted in Reaction Buffer • 2 μL of compound was added into each well first, and then 180 μL of the Reaction Mix was added. • Reaction mixture with compound (without ADP) were incubated for 30 minutes at 4° C. • Plates were re-equilibrated to room temperature prior to adding 20 μL ADP to initiate the reaction. • Reaction progress was measured as changes in absorbance at 340 nm wavelength at room temperature (25° C.) • Reaction Mix: PKM2 (50 ng/well), ADP (0.7 mM), PEP (0.15 mM), NADH (180 μM), LDH (2 units) in Reaction Buffer • Reaction Buffer: 100 mM KCl, 50 mM Tris pH 7.5, 5 mM MgCl2, 1 mM DTT, 0.03% BSA.

Sequence of PKM2 (P14618 whole entry): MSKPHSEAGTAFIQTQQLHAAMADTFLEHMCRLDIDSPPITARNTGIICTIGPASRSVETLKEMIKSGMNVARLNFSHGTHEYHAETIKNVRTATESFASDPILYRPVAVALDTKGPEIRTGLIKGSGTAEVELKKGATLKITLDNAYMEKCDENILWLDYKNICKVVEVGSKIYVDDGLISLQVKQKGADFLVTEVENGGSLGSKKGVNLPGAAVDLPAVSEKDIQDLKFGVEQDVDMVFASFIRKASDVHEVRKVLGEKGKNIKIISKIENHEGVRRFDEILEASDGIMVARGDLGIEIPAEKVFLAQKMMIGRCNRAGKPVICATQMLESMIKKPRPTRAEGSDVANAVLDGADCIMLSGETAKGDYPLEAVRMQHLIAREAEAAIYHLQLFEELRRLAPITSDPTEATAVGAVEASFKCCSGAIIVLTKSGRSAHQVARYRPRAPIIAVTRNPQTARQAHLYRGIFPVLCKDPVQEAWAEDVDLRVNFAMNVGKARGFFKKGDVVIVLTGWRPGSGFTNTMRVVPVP

SMILES | AC50 [nM]
O=S(=O)(Nc1ccc(F)cc1)c1cncn1-c1ccc(C(F)(F)F)cn1 | 1000 to 10000
O=S(=O)(Nc1cc(C(F)(F)F)cc(C(F)(F)F)c1)c1cncn1-c1ncc(C(F)(F)F)cc1Cl | > 10000
O=S(=O)(Nc1ccc(F)c(Cl)c1)c1ccnn1-c1cccs1 | > 10000
O=S(=O)(Nc1cccc2ccccc12)c1cncn1-c1ncc(C(F)(F)F)cc1Cl | 100 to 500
COC(=O)c1cccc(NS(=O)(=O)c2cccn2-c2ncc(C(F)(F)F)cc2Cl)c1 | 1000 to 10000
O=S(=O)(Nc1cccc(Cl)c1)c1ccnn1-c1ncc(C(F)(F)F)cc1Cl | 100 to 500
Cc1cc(C)cc(NS(=O)(=O)c2cncn2-c2cnccn2)c1 | < 100
O=S(=O)(Nc1ccc2c(c1)OCO2)c1cncn1-c1ncccn1 | 500 to 1000
O=S(=O)(Nc1ccc(Cl)cc1)c1cccn1-c1ncccc1Cl [drawing 154] | 100 to 500
CN(C)S(=O)(=O)c1cccn1-c1ncc(C(F)(F)F)cc1Cl | > 10000
Cc1cc(C)cc(NS(=O)(=O)c2cncn2-c2ccc(C(F)(F)F)cn2)c1 | 100 to 500
O=S(=O)(Nc1cc(F)cc(F)c1)c1cccn1-c1ncccc1Cl [drawing 63] | 500 to 1000
O=S(=O)(Nc1cccc(-c2ccc(C(F)(F)F)cn2)c1)c1cccn1-c1ncc(C(F)(F)F)cc1Cl | 1000 to 10000
Cc1cc(NS(=O)(=O)c2ccnn2-c2cnccn2)ccc1F | 100 to 500
O=S(=O)(Nc1cc(Cl)cc(Cl)c1)c1cncn1-c1ncc(C(F)(F)F)cc1Cl | 1000 to 10000
O=S(=O)(Nc1ccc(F)c(Cl)c1)c1cccn1-c1nccc(Cl)n1 | 100 to 500
CCc1cccc(NS(=O)(=O)c2cncn2-c2ncc(C(F)(F)F)cc2Cl)c1 | 100 to 500
O=S(=O)(Nc1ccc(F)cc1)c1cncn1-c1ncccn1 | 1000 to 10000
COc1cc(NS(=O)(=O)c2cncn2-c2ncc(C(F)(F)F)cc2Cl)cc(OC)c1 | 500 to 1000
O=S(=O)(Nc1cc(F)c(F)c(F)c1)c1cccn1-c1ccnc(Cl)n1 | 1000 to 10000
O=S(=O)(Nc1cc(F)c(F)c(F)c1)c1cncn1-c1ncc(C(F)(F)F)cc1Cl | 1000 to 10000
O=S(=O)(Nc1cc(F)cc(F)c1)c1cccn1-c1ncccc1Cl [drawing 162] | < 100
Cc1cc(NS(=O)(=O)c2cccn2-c2ncccc2Cl)ccc1F [drawing 101] | < 100

SMILES | AC50 [nM]
O=S(=O)(Nc1ccc(F)cc1)c1cccn1-c1ncccc1Cl | 1000 to 10000
O=S(=O)(Nc1ccc(F)cc1)c1cncn1-c1ncc(C(F)(F)F)cc1Cl | 1000 to 10000
Cc1cc(C)cc(S(=O)(=O)Nc2ccnn2-c2ncc(C(F)(F)F)cc2Cl)c1 | > 10000
Cc1cc(NS(=O)(=O)c2ccnn2-c2ncc(C(F)(F)F)cc2Cl)ccc1F | < 100
Cc1cc(NS(=O)(=O)c2ccnn2-c2cccs2)ccc1F | 1000 to 10000
O=S(=O)(Nc1cccc(Cl)c1)c1ccnn1-c1cccs1 | > 10000
O=S(=O)(Nc1ccc2c(c1)OCO2)c1cccn1-c1nccc(Cl)n1 | 100 to 500
O=S(=O)(Nc1ccc(F)c(Cl)c1)c1ccnn1-c1nccs1 | 1000 to 10000
CCCNS(=O)(=O)c1cccn1-c1ncc(C(F)(F)F)cc1Cl | 1000 to 10000
Cc1cc(NS(=O)(=O)c2cncn2-c2cnccn2)ccc1F | 100 to 500
O=S(=O)(Nc1ccc(Oc2ccc(C(F)(F)F)cn2)c(Cl)c1)c1cccn1-c1ncc(C(F)(F)F)cc1Cl | 1000 to 10000
O=S(=O)(Nc1cccc(Cl)c1)c1cncn1-c1cccs1 | 1000 to 10000
O=S(=O)(Nc1ccc(F)c(Cl)c1)c1cncn1-c1nccs1 | 500 to 1000
O=S(=O)(Oc1ccc(Cl)cc1)c1cccn1-c1ncc(C(F)(F)F)cc1Cl | 500 to 1000
COc1cc(NS(=O)(=O)c2cncn2-c2ncc(C(F)(F)F)cc2Cl)cc(C(F)(F)F)c1 [drawing 144] | 500 to 1000
O=S(=O)(Nc1ccc(F)cc1)c1cccn1-c1ccc(C(F)(F)F)cn1 | 1000 to 10000
O=S(=O)(Nc1cc(F)cc(F)c1)c1cccn1-c1ccnc(Cl)n1 | 500 to 1000
Cc1cc(NS(=O)(=O)c2cncn2-c2ncccn2)ccc1F [drawing 132] | < 100
O=S(=O)(Nc1ccc(F)c(Cl)c1)c1cccn1-c1ncccc1Cl | 100 to 500
O=S(=O)(Nc1cc(F)cc(F)c1)c1cncn1-c1ncccn1 | 1000 to 10000
O=S(=O)(Nc1ccc(Cl)cc1)c1cnn(-c2ccc(C(F)(F)F)cn2)c1 | 1000 to 10000
COc1cc(NS(=O)(=O)c2cccn2-c2ncc(C(F)(F)F)cc2Cl)cc(OC)c1 | 100 to 500
Cc1cccc(NS(=O)(=O)c2cncn2-c2cnccn2)c1 | 100 to 500

Continued, values first:

AC50 [nM] | SMILES
> 10000 | COc1ccc(NS(=O)(=O)c2cnn(-c3ccc(C(F)(F)F)cn3)c2)cc1
1000 to 10000 | N#Cc1cccc(NS(=O)(=O)c2cncn2-c2ncc(C(F)(F)F)cc2Cl)c1
1000 to 10000 | O=S(=O)(Nc1ccc(F)cc1)c1cncn1-c1ccnc(Cl)n1
> 10000 | O=S(=O)(NCc1ccc(Cl)cc1)c1cccn1-c1ncc(C(F)(F)F)cc1Cl
100 to 500 | COc1ccc(NS(=O)(=O)c2cccn2-c2ncc(C(F)(F)F)cc2Cl)cc1
500 to 1000 | COc1cc(NS(=O)(=O)c2cccn2-c2ccnc(Cl)n2)cc(C(F)(F)F)c1
1000 to 10000 | COc1cc(NS(=O)(=O)c2cncn2-c2ncc(C(F)(F)F)cc2Cl)cc(C(F)(F)F)c1 [drawing 122]
1000 to 10000 | COc1ccc(NS(=O)(=O)c2cnn(-c3ncc(C(F)(F)F)cc3Cl)c2)cc1
500 to 1000 | O=S(=O)(Nc1ccc(Cl)cc1)c1cccn1-c1nccc(Cl)n1
1000 to 10000 | O=S(=O)(Nc1ccc2ncccc2c1)c1cncn1-c1ncc(C(F)(F)F)cc1Cl
1000 to 10000 | O=S(=O)(Nc1cc(F)cc(F)c1)c1cncn1-c1nccc(Cl)n1
1000 to 10000 | O=S(=O)(Nc1ccc(F)c(Cl)c1)c1cncn1-c1nccc(Cl)n1
100 to 500 | Cc1cc(NS(=O)(=O)c2cncn2-c2nccs2)ccc1F
> 10000 | O=S(=O)(Nc1cc(F)cc(F)c1)c1cncn1-c1ccnc(Cl)n1
1000 to 10000 | O=S(=O)(Nc1ccc(F)c(Cl)c1)c1cncn1-c1cccs1
100 to 500 | O=S(=O)(Nc1ccc2c(c1)OCO2)c1cncn1-c1cnccn1
> 10000 | COCCNS(=O)(=O)c1cccn1-c1ncc(C(F)(F)F)cc1Cl
1000 to 10000 | O=S(=O)(Nc1cccc(C(F)(F)F)c1)c1cncn1-c1ncc(C(F)(F)F)cc1Cl
100 to 500 | O=S(=O)(Nc1ccc(F)c(Cl)c1)c1cncn1-c1cnccn1
1000 to 10000 | O=S(=O)(Nc1ccccc1C(F)(F)F)c1cccn1-c1ncc(C(F)(F)F)cc1Cl
1000 to 10000 | COc1cc(NS(=O)(=O)c2cncn2-c2ncc(C(F)(F)F)cc2Cl)cc(C(F)(F)F)c1 [drawing 149]
1000 to 10000 | O=S(=O)(Nc1cc(Cl)cc(Cl)c1)c1cccn1-c1ncc(C(F)(F)F)cc1Cl
500 to 1000 | O=S(=O)(Nc1cccc(C(F)(F)F)c1)c1cccn1-c1ccnc(Cl)n1
500 to 1000 | O=S(=O)(Nc1cccc(Cl)c1)c1cncn1-c1nccs1
500 to 1000 | O=S(=O)(Nc1ccc2c(c1)OCO2)c1cncn1-c1ccnc(Cl)n1
< 100 | O=S(=O)(Nc1ccc2c(c1)OCO2)c1cccn1-c1ccnc(Cl)n1

AC50 [nM] | SMILES
1000 to 10000 | Cc1cc(NS(=O)(=O)c2ccnn2-c2nccs2)ccc1F
1000 to 10000 | O=S(=O)(Nc1ccc(Cl)cc1)c1cccn1-c1ncccn1
1000 to 10000 | O=S(=O)(Nc1ccc(Cl)cc1)c1cncn1-c1nccc(Cl)n1
> 10000 | O=S(=O)(Nc1ccc2c(c1)OCCO2)c1cncn1-c1ccc(C(F)(F)F)cn1
100 to 500 | O=S(=O)(Nc1cccc(C(F)(F)F)c1)c1cccn1-c1ncc(C(F)(F)F)cc1Cl
100 to 500 | O=S(=O)(Nc1ccc(Cl)cc1)c1cnn(-c2ncc(C(F)(F)F)cc2Cl)c1
1000 to 10000 | O=S(=O)(Nc1cccc2ncccc12)c1cncn1-c1ncc(C(F)(F)F)cc1Cl
1000 to 10000 | Cc1cc(NS(=O)(=O)c2cncn2-c2cccs2)ccc1F
500 to 1000 | COc1cc(NS(=O)(=O)c2cccn2-c2ncc(C(F)(F)F)cc2Cl)cc(C(F)(F)F)c1
1000 to 10000 | COc1ccc(NS(=O)(=O)c2cncn2-c2ncc(C(F)(F)F)cc2Cl)cc1
100 to 500 | N#Cc1cccc(NS(=O)(=O)c2cccn2-c2ncc(C(F)(F)F)cc2Cl)c1
100 to 500 | O=S(=O)(Nc1ccc(F)c(Cl)c1)c1cncn1-c1ncccn1 [drawing 117]
< 100 | Cc1cc(NS(=O)(=O)c2cccn2-c2ccnc(Cl)n2)ccc1F
500 to 1000 | CCc1cccc(NS(=O)(=O)c2cccn2-c2ncc(C(F)(F)F)cc2Cl)c1
100 to 500 | O=S(=O)(Nc1cc(F)c(F)c(F)c1)c1cccn1-c1ncc(C(F)(F)F)cc1Cl
1000 to 10000 | O=S(=O)(Nc1ccc(Cl)cc1)c1cncn1-c1ccnc(Cl)n1
100 to 500 | O=S(=O)(Nc1ccc(F)c(Cl)c1)c1cncn1-c1ccnc(Cl)n1
1000 to 10000 | O=S(=O)(Nc1ccc(F)cc1)c1cncn1-c1nccc(Cl)n1
1000 to 10000 | O=S(=O)(Nc1ccc2c(c1)OCCO2)c1cncn1-c1ncc(C(F)(F)F)cc1Cl
500 to 1000 | O=S(=O)(Nc1cc(F)cc(F)c1)c1cncn1-c1ncc(C(F)(F)F)cc1Cl
1000 to 10000 | O=S(=O)(Nc1cccc(Cl)c1)c1ccnn1-c1nccs1
500 to 1000 | O=S(=O)(Nc1ccc(Cl)cc1)c1cccn1-c1ccnc(Cl)n1
1000 to 10000 | COc1ccc(NS(=O)(=O)c2cncn2-c2ccc(C(F)(F)F)cn2)cc1
1000 to 10000 | O=S(=O)(Nc1ccc(Cl)cc1)c1cncn1-c1ncccn1
1000 to 10000 | O=S(=O)(NCc1cccnc1)c1cccn1-c1ncc(C(F)(F)F)cc1Cl

Source: US9938259B2, “Therapeutic compositions and related methods of use” (Agios Pharmaceuticals, Inc., priority 2009, dated 2018)
